From ChEMBL document CHEMBL1201862, “PubChem BioAssay data set” (2004) come the findings set out here.

As a reminder, the AC50 is the concentration giving half of the maximal activity seen. What is called CC50 is the concentration that lowers cell viability or growth by half.

Assay [1] is described as follows: CTGF mRNA reduction under YAP1 overexpression, dose response, mechanism study for YAP1 pathway inhibitor project, DLD1 cells, RT-qPCR, cherry-pick (AID 1053127). It is filed as functional, cell-based. The note with it: DLD-1. (In general: Real-time PCR tracks product formation cycle by cycle.)
A short description of assay [2]: HepG2 cell cytotoxicity, dose response, cytotoxicity control, ATP luminescence, dry powder, set 2 (AID 743129). It is filed as functional, cell-based.
A further assay relates to Cryptococcus neoformans. Kind of assay: PubChem AID 686997. It is filed as functional, organism-based.
Assay [3] can be described thus: HEK293T cell cytotoxicity, dose response, cytotoxicity control, CellTiter-Glo luminescence, dry powder, set 2 (AID 720595). It is filed as functional, cell-based. Conditions: HEK293. (In general: In ATP-based viability assays light output follows the ATP content of the culture.)
Assay [4] in a line: HeLa cell cytotoxicity, dose response, cytotoxicity control, CellTiter-Glo luminescence, dry powder, set 2 (AID 720593). It is filed as functional, cell-based.
Assay [5] is described as follows: HepG2 hepatoma cell cytotoxicity, dose response, cytotoxicity control, CellTiter-Glo luminescence, dry powder, set 3 (AID 720594). It is filed as functional, cell-based.
Assay [6] concerns the target T1, Oxysterols receptor LXR-beta (Homo sapiens, UniProt P55055).
T1 sequence (P55055 whole entry): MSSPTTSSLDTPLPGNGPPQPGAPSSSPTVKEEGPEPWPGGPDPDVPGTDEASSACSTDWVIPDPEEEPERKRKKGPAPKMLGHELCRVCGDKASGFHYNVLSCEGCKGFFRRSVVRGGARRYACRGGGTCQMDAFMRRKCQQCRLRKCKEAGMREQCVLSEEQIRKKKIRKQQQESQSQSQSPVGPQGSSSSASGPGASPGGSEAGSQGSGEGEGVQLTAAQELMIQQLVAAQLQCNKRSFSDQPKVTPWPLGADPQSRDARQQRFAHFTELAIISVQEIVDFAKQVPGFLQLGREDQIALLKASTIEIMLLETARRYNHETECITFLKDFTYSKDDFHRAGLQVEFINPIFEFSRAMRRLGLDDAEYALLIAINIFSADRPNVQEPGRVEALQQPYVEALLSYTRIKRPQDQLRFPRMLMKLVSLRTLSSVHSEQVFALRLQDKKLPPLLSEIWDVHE
Kind of assay: LXR agonists, Gal4 luciferase reporter, dose response, counter-screen for ssDAF-12 agonist project, cell-based, luminescence, HEK293, S. stercoralis campaign (AID 720737). It is filed as functional. The note with it: read-out: IC50 (the source's name). For orientation: A reporter such as luciferase makes a cellular process visible.

A short description of assay [7]: Luminescence-based cell-based high throughput dose response assay to identify activators of the DAF-12 from the parasite S. stercoralis (ssDAF-12). It is filed as functional.
The nature of assay [8]: TB: CFU replicating Measured in Microorganism System Using Imaging - 7108-05_Inhibitor_Dose_DryPowder_Activity_Set2. It is filed as functional.
The target of assay [9] is T2, Rac GTPase-activating protein 1 (Homo sapiens, UniProt Q9H0H5).
T2 sequence (Q9H0H5 whole entry): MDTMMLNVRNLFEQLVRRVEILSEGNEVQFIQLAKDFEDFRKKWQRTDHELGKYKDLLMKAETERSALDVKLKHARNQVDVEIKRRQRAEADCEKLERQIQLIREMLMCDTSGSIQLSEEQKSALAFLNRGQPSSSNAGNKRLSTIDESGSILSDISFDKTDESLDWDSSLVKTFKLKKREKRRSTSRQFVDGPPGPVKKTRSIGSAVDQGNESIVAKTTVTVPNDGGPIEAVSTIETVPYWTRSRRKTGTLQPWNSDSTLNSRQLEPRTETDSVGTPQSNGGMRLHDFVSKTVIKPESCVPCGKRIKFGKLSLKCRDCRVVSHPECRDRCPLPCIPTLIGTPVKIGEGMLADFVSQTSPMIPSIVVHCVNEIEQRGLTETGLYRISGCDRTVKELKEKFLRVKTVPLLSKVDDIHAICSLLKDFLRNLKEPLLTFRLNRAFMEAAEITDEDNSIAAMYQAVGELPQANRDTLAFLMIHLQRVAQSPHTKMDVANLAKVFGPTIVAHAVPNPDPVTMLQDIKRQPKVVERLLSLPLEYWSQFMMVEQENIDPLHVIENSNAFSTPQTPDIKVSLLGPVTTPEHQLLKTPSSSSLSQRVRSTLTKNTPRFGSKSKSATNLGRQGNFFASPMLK
Kind of assay: MgcRacGAP GTPase-activating activity inhibitors, confirmation, biochemical, ADP Hunter fluorescence, primary and confirmatory (AID 624330). It is filed as functional.

In assay [10] the target is T3, DNA repair protein RAD52 homolog (Homo sapiens, UniProt P43351).
T3 sequence (P43351 whole entry): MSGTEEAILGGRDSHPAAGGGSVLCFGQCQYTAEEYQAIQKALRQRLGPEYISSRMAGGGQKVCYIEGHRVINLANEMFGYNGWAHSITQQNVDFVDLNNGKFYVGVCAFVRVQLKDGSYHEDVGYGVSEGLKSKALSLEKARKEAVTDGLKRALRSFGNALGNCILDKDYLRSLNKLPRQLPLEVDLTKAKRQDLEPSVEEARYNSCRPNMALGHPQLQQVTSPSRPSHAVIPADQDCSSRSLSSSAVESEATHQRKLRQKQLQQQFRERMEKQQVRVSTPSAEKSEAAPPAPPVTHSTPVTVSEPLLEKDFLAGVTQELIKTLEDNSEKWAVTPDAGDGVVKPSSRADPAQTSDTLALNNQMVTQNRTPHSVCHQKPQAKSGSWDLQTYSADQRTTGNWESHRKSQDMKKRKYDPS
It is filed as functional, biochemical.

The target of assay [11] is T4, Sentrin-specific protease 1 (Homo sapiens, UniProt Q9P0U3). The assay is described as follows: potency of human SENP1 inhibitors, dose response, biochemical, kinetic FRET (AID 651697). It is filed as functional. Conditions: read-out: IC50_Mean.
T4 sequence (Q9P0U3 whole entry): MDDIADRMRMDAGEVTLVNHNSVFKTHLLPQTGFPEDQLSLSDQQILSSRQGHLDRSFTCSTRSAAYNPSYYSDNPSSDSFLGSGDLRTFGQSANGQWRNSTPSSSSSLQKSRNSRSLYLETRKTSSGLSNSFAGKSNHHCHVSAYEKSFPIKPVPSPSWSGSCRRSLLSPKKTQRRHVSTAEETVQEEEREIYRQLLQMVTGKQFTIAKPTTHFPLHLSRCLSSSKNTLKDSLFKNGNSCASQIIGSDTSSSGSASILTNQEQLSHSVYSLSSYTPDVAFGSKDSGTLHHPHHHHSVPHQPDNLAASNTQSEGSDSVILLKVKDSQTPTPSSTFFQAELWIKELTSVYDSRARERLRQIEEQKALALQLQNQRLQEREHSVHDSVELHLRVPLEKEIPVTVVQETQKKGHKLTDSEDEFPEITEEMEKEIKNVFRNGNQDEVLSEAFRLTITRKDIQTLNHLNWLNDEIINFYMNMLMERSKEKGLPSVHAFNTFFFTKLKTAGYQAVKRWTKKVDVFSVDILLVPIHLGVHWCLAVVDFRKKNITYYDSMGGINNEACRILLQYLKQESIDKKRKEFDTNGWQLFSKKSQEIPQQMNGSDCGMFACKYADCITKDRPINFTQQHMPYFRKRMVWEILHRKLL
Assay [12] is described as follows: HeLa cell cytotoxicity, dose response, cytotoxicity control for MgcRacGAP inhibitor project (AID 624300). It is filed as functional.
The target of another assay is Transthyretin (Homo sapiens, UniProt P02766). Kind of assay: Luminescence-based cell-based high throughput dose response assay to identify activators of Transthyretin (TTR) transcription. It is filed as functional.
Assay [13] has as its target T4, Sentrin-specific protease 1. The assay is described as follows: Dose response confirmation of small molecule inhibitors of the catalytic domain of the SUMO protease, SENP1 in a FRET assay. It is filed as functional. The note with it: read-out: IC50_Mean.
Assay [14] deals with Dual specificity tyrosine-phosphorylation-regulated kinase 1A (Rattus norvegicus, UniProt Q63470). It is filed as biochemical, Homo sapiens.

The source made the active and inactive calls. A value given as a limit tells only on which side of the number the result lay.

As to `C[C@@H]1CN([C@@H](C)CO)C(=O)CCCn2nncc2CO[C@@H]1CN(C)C(=O)c1cc(-c2ccccc2)on1`, the AC50 in [1] was > 26 µM (inactive).

For the compound `COC(=O)C1=C(C)N(Cc2ccc(F)cc2)C(=S)NC1c1cccc(F)c1` (stereo unspecified), the values for the AC50 (in [2]; with Cryptococcus neoformans) were > 52 µM (inactive) and 36.7 µM (active), respectively.

On to `CCn1nc(-c2cccnc2)nc2c(=O)n(C)c(=O)nc1-2`, for which the AC50 is 16.4 µM (active) in [3], 4.34 µM (active) in assay [4] and 3.24 µM (active) in [5].

For `COC(=O)[C@]12C=CCN1[C@H](c1ccc(OC)c(OC)c1)c1c(c3ccccc3n1S(=O)(=O)c1ccc(C)cc1)C2`, the EC50 in [6] is > 67.5 µM (inactive). Besides, in [7], the IC50 was > 67.5 µM (inactive).

In the case of `Cn1c(NC(=O)c2ccccc2)nc2c3cccnc3ccc21`, in assay [8], the AbsAC90 is 141.12 µM.

With `CN(C)CCNc1ccc(CO)c2oc3ccc(O)cc3c(=O)c12`, the IC50 in [9] is 128 µM (active); in assay [11], 14.1 µM (active); in assay [13], 21.6 µM (inactive). Further, the figures for the AC50 in assay [10] and in assay [14] were 2.51 µM (active) and 8.03 µM (active), respectively. Also, in assay [12], the 50% cytotoxic concentration (CC50) is 50.8 µM (active). Besides, the EC50 on Transthyretin was > 167 µM (inactive).
